Test results taken from patent US20090087889A1, “Methods and compositions for growth hydrocarbons in botryococcus sp” (priority 2005, published 2009).

Tested on: Botryococcus sp. colonies
Assay: Flotation (buoyancy) of bottom-dwelling colonies as visual assay of hydrocarbon content
Type: cell-based
From the text: Previous investigations (Ohmori, et al. 1984; and Wolf, et al, 1985) verified that colonies containing greater than 20% of dry weight as botryococcenoid hydrocarbons were buoyant and that colonies containing less than 5% hydrocarbons remained sunken at the bottom of the culture vessel, providing a visual method for selecting cells with commercial-grade hydrocarbons. […] Colonies in hydrocarbon-enhancement were placed […] without supplemental carbon dioxide gas to eliminate artifacts of flotation from bubbles. Environmental conditions were 150 μE/m^2/sec PAR to 1700 μE/m^2/sec PAR at 25-37° Centigrade. Nutrient chemicals were reagent grade in all laboratory-scale experiments. In field-scale tests, fertilizer grade chemical nutrients were provided. In order to minimize or eliminate ammonia, nitrates were optionally kiln dried prior to admixture. Supplementation with 0.1% to 100% carbon dioxide gas or carbonate (e.g., 10 mg/ml sodium bicarbonate or potassium bicarbonate) increased hydrocarbon synthesis substantially, especially, when under the highest light intensities with soluble elements of the present invention.
Stock cultures were taken from bottom-dwelling colonies that had been maintained in conventional liquid culture media, typified by approximately 1 ppm to 10 ppm phosphate, 0.01 ppm to 0.3 ppm iron, and 0.01 ppm to 0.5 ppm zinc, as for example, in Showa medium and other phycological media. Aqueous nutrient solutions were placed in sterile culture tubes and flasks and steam sterilized twice for 60 minutes. Following inoculation and growth, colonies were concentrated with overnight settling and approximately one million submerged green colonies were collected from the bottom of culture vessels. Equal volumes were resuspended into replicate culture vessels with equal volumes of enhancement media in the highest light intensities available in preparation for experiments. Control cultures were transferred into equal volumes of Showa medium and placed side by side under identical conditions as controls.

| Compound | colour of colonies after long exposure (200 mM to 300 mM phosphates, approximately two to eight weeks) | state of colonies after long exposure (after two weeks or more in 300 mM phosphate) | time until bottom-dwelling colonies began to rise to the surface (in water with up to 300 mM phosphates) | total phosphate concentration that stimulated the rise of colonies to the surface (subtractive matrix analysis, most rapid in presence of soluble Mg, Mn, Fe and Zn^+2) | colour of colonies after long exposure (100 ppm Zn^+2, approximately two to eight weeks) |
| --- | --- | --- | --- | --- | --- |
| phosphates | color change of the colonies toward amber | remained floating, but cleared to amber | ≤ 5 h | greater than 80 mM | – |
| [Zn+2] [Zn^+2] | – | – | – | – | color change of the colonies toward amber |
